The source of these data is patent publication US20230414634A1, “METHODS FOR TREATING CHOLESTATIC PRURITUS” (GlaxoSmithKline Intellectual Property (No.2) Limited, priority 2020, published 2023).

Assay [1] has as its system patients with PBC and cholestatic pruritus. Nature of the assay: GLIMMER Phase 2b study (NCT02966834): itch efficacy and PBC-40 quality of life. Format: in vivo, human. The following applies: for mean increase in itch responder days: difference from placebo, 12 weeks' treatment. The text has this: Measurement of Itch (pruritus)—10 Point Numerical Rating Scale (NRS) • Itch Score: itch scores recorded by study participants twice daily; a 0-10 Numerical Rating Scale (NRS) is used to assess itch with a response option of 0 representing no itching and 10 the worst imaginable itching • Worst Daily Itch Score: the worst of two itch scores recorded by a patient daily is considered the score for that day (i.e. the most severe (highest) NRS recorded on a given day) • Mean Worst Daily Itch Score (Weekly Itch Score [WIS]): the average of the Worst Daily Itch Scores in one week (7 days) • Monthly Itch Score (MIS): the worst Mean Worst Daily Itch Score for that month (i.e., worst week score of the 4 weeks) • Itch Response: for example, ≥2-point improvement in mean Worst Daily Itch Score from Baseline • Itch Responder Days: days when the Itch Response definition is met (i.e. days with an Itch Response) • Itch Severity: measured using 0-10 NRS; moderate to severe is ≥4 NRS • Baseline (itch score at the end of the placebo period before treatment,) is the average of the itch scores in the 7 days prior to randomisation (in Example 2, prior to randomisation at Week 4) • Change from Baseline was calculated as the post-Baseline value minus the Baseline value.
GLIMMER trial: Phase 2b study (NCT02966834; GSK study 201000). A randomized, double-blind, placebo-controlled study of linerixibat, an inhibitor of the ileal bile acid transporter, in the treatment of cholestatic pruritus in primary biliary cholangitis, for patients with PBC and pruritus.
The twice daily patient-reported 0-10 Numerical Rating Scale (NRS) worst itch assessment was employed, with the worst value from each day used to calculate the mean worst daily itch, which was then used to assess change in pruritus. This measure has independent content validity in PBC; similar measures are psychometrically valid and have been used to determine changes in itch intensity in PBC.
Patients with PBC with pruritus (≥4 on 0-10 numeric rating scale [NRS]) were enrolled; double-blind treatment was preceded and followed by 4 weeks' single-blind placebo.
At Week 4, patients with NRS ≥3 were randomized,(4:1) to double-blind linerixibat or placebo for 12 weeks (to Week 16), followed by single-blind placebo (to Week 20).
Primary endpoint: mean change from baseline in mean Worst Daily Itch Score at Week 16. Participants were required to score the severity of their itching using the 0-10 NRS, from which the Worst Daily Itch Score is obtained, and the Mean Worst Daily Itch score was calculated as the average of the worst daily itch scores provided in the 7 days prior to the Week 16 visit. Baseline is the average of the scores in the 7 days prior to the Week 4, and the Change from Baseline was calculated. Analysis was done using Analysis of covariance (ANCOVA) including treatment group and centered Mean Worst Daily Itch score at Baseline.
Secondary and exploratory endpoints: itch efficacy, quality of life (PBC-40) and pharmacodynamic biomarkers, and safety and tolerability.
Ad hoc endpoint: change from baseline itch compared with Monthly Itch Score over the main study period.
Due to the potential fluctuation of itch over time, an additional post-hoc analysis was conducted on the primary endpoint according to the FDA preferred approach to evaluate the effect over the entire 12 weeks treatment duration using Monthly Itch Score. A mixed model repeated measures (or mixed-effect repeated measure model) (MMRM) analysis estimated the effect of linerixibat comparing to placebo over the entire 12 weeks treatment duration.

Assay [2] concerns TSBA, C4, FGF-19, serum autotaxin and LDL cholesterol. Nature of the assay: GLIMMER Phase 2b study: pharmacodynamic serum biomarkers. Format: in vivo, human. The source says:
The following biomarkers are useful in clinical investigations relating to the treatment of pruritus, particularly cholestatic pruritus:
Serum 7-α-hydroxy-4-cholesten-3-one (C4)
C4 is an intermediate in the biochemical synthesis of bile acids from cholesterol. C4 concentrations reflect the activity of the bile acid synthetic pathway.
FGF-19 a protein which functions as a hormone, regulating bile acid synthesis, with effects on glucose and lipid metabolism.
Autotaxin is the enzyme that produces lysophosphatidic acid (LPA) which is found to correlate with itch intensity.
LDL one of the five major groups of lipoprotein which transport all fat molecules around the body in the extracellular water.
TSBA are metabolized in the liver and can serve as a marker for normal liver function.
Measurement of Level of Pharmacodynamic Biomarkers
Total serum bile acids (TSBA) (FIG. 10)
Serum 7-α-hydroxy-4-cholesten-3-one (C4) (FIG. 2)
Serum fibroblast growth factor-19 (FGF-19) (FIG. 7)
Serum LDL (low-density lipoprotein) cholesterol (FIG. 9)
Further analysis of biomarker parameters provided clear indication of pharmacological action with decreases in total serum bile acids (TSBA), increases in the serum bile acid precursor C4 (7-a-hydroxy-4-cholesten-3-one) and corresponding mean decreases in fibroblast growth factor 19 (FGF-19), a hormone that regulates bile acid synthesis. […] Reductions in FGF-19 and autotaxin were also observed across most treatment groups during the main study period (excluding placebo for FGF-19 and linerixibat 20 mg QD for autotaxin) (FIG. 7, FIG. 8).

In the case of `CCCC[C@]1(CC)CS(=O)(=O)c2cc(CNC(CC(=O)O)CC(=O)O)c(OC)cc2[C@@H](c2ccccc2)N1` [linerixibat], the “responder days vs placebo” value in assay [1] (40 mg BID and 90 mg BID) is listed as “Significantly more”. Moreover, in assay [1] (40 mg BID, 12 weeks treatment), the “Mean Worst Daily Itch Score of patients with moderate to severe itch at baseline, versus placebo” value is on record as “Significant difference”. Further, the “PBC-40 emotional domain, LS Mean difference vs placebo” value in assay [1] (40 mg BID, 95% CI: −1.9, 0.3) is reported as −0.8. Also, the “PBC-40 social domain, LS Mean difference vs placebo” value in assay [1] (40 mg BID, 95% CI: −4.8, 0.1) is listed as −2.4. Further, the “mean increase in itch responder days” value in assay [1] (40 mg BID) was 20%; in assay [1] (90 mg BID) it was 27%. Moreover, the “LS Mean Change from Baseline vs Placebo in Monthly Itch Score over 12 weeks treatment (MMRM, post-hoc)” value in assay [1] (40 mg BID, p=0.011) is -1.16; in assay [1] (90 mg BID, p=0.037), −0.95; in assay [1] (180 mg QD, p=0.042), −0.90. In addition, the “Monthly Itch Score, improvement from baseline over 12 weeks treatment” value in assay [1] (40 mg and 90 mg BID, 180 mg QD) is recorded as “Significant improvement”. For the same compound, the “pre-specified primary endpoint: dose response across dose ranges” value in assay [1] (ITT and per protocol populations) is “could not be established”. In addition, the “mean Worst Daily Itch Score” value in assay [1] (all linerixibat doses) is “rapid improvement”. Also, the “PBC-40 itch domain, change from baseline after 12 weeks” value in assay [1] (all treatment groups including placebo, p≤0.05) is reported as “significant improvement”. The “FGF-19 mean change from baseline compared with placebo (ANCOVA)” value in assay [2] (40 mg BID) is on record as “statistically significant reductions”. Besides, the “serum C4 increase” value in assay [2] (40 mg BID and 90 mg BID doses) is “largest increase”. Moreover, the “serum autotaxin concentration compared with placebo” value in assay [2] (40 mg BID, Week 16) is “significantly decreased”. Further, the “C4 LS mean ratio increases from baseline (MMRM)” value in assay [2] (180 mg QD and both BID treatment groups) is “largest increases”. The “LDL cholesterol compared to the placebo group” value in assay [2] (Week 16, all linerixibat treatment groups with the exception of 20 mg QD) is “significantly reduced”. The “fibroblast growth factor-19 (FGF-19) reduction” value in assay [2] (two BID doses of 40 mg and 90 mg) is “greatest reduction”. Further, in assay [2] (week 16, 40 mg and 90 mg BID), the “total serum bile acids (TSBA) compared with baseline (MMRM)” value is on record as “statistically significant decrease”.
